The text below walks through data of ChEMBL document CHEMBL1149256, “Discovery of 4-aryl-4H-chromenes as a new series of apoptosis inducers using a cell- and caspase-based high-throughput screening assay. 1. Structure-activity relationships of the 4-aryl group” (J Med Chem, 2004).

pEC50, pIC50: −log10 of the molar value. The source made the active and inactive calls. The rule behind the calls is not given here.

Experiment [1] concerns T47D. As to the kind of experiment: Induction of apoptosis in human T47D cells assessed as caspase activation after 24 hrs. Format: functional, cell-based.
The next experiment deals with NCI-H1299. Briefly: Induction of apoptosis in human H1299 cells assessed as caspase activation after 24 hrs. Format: functional, cell-based. Particulars: NCI-H1299, 24 h.
Experiment [2] concerns DLD-1. As to the kind of experiment: Induction of apoptosis in human DLD1 cells assessed as caspase activation after 24 hrs. Format: functional, cell-based. Particulars: DLD-1, 24 h.
The test system of experiment [3] is DLD-1. As to the kind of experiment: Antiproliferative activity against human DLD1 cells after 48 hrs by MTT assay. The experiment is classed as functional. As to conditions: DLD-1, 48 h.
For experiment [4], the system named is T47D. Briefly: Antiproliferative activity against human T47D cells after 48 hrs by MTT assay. The experiment is classed as functional. For orientation: Formazan colour is commonly taken as a measure of viable cells.
For experiment [5], the system named is T47D. As to the kind of experiment: Ratio of GI50 for human T47D cells to EC50 for human T47D cells. Format: functional.
For experiment [6], the system named is DLD-1. Briefly: Ratio of GI50 for human DLD1 cells to EC50 for human DLD1 cells. Format: functional.
Experiment [7] deals with T47D. Briefly: Induction of apoptosis in human T47D cells assessed as accumulation at S phase at 0.1 uM after 48 hrs. Format: functional.
Experiment [8] deals with Jurkat. Briefly: Induction of apoptosis in Jurkat cells assessed as PARP cleavage at 2.5 uM. The experiment is classed as functional, cell-based. As to conditions: Homo sapiens, TDE = time-dependent effect.
Experiment [9] addresses Tubulin. Briefly: Inhibition of tubulin polymerization. Format: protein-complex assay, Homo sapiens.
In experiment [10] the test system is T47D. Briefly: Induction of apoptosis in human T47D cells assessed as accumulation at G2/M phase at 0.1 uM after 24 hrs. The experiment is classed as functional.
For experiment [11], the system named is T47D. Briefly: Induction of apoptosis in human T47D cells assessed as accumulation at subG1 phase at 0.1 uM after 48 hrs. Format: functional.
The subject of experiment [12] is T47D. As to the kind of experiment: Induction of apoptosis in human T47D cells assessed as accumulation at G1 phase at 0.1 uM after 24 hrs. Format: functional.
Experiment [13] has as its system Jurkat. As to the kind of experiment: Induction of caspase-mediated apoptosis in Jurkat cells at 0.1 uM after 24 hrs by nuclear fragmentation assay. The experiment is classed as functional, cell-based. Particulars: Homo sapiens.
For experiment [14], the system named is T47D. Briefly: Induction of apoptosis in human T47D cells assessed as accumulation at subG1 phase at 0.1 uM after 24 hrs. The experiment is classed as functional.
For experiment [15], the system named is T47D. As to the kind of experiment: Induction of apoptosis in human T47D cells assessed as accumulation at S phase at 0.1 uM after 24 hrs. Format: functional.
Experiment [16] concerns T47D. Briefly: Induction of apoptosis in human T47D cells assessed as accumulation at G2/M phase at 0.1 uM after 48 hrs. Format: functional.
In experiment [17] the test system is T47D. Briefly: Induction of apoptosis in human T47D cells assessed as accumulation at G1 phase at 0.1 uM after 48 hrs. Format: functional.
For experiment [18], the system named is Jurkat. Briefly: Induction of apoptosis in Jurkat cells assessed as PARP cleavage at 1 uM after 30 hrs. Format: functional, cell-based. As to conditions: Homo sapiens.
The target of experiment [19] is Tubulin. As to the kind of experiment: Displacement of [3H]colchicine from tubulin. The experiment is classed as protein-complex assay, Homo sapiens. (In general: Loss of bound radioactivity is the signal in a displacement assay; it reports binding, not function.)

On to `CN(C)c1ccc2c(c1)OC(N)=C(C#N)C2c1cc(Br)cs1` (centres undefined), for which the pEC50 (in general, the negative decadic logarithm of the EC50, by convention in mol/L) with T47D [1] was 6.82; with NCI-H1299 it was 6.62; in the experiment with DLD-1 [2], 6.80.
For the compound `COc1cc2c(c(OC)c1OC)-c1ccc(OC)c(=O)cc1[C@@H](NC(C)=O)CC2` [COLCHICINE], the pEC50 with NCI-H1299 is 7.47.
For the compound `COc1cc(Br)cc(C2C(C#N)=C(N)Oc3cc(N(C)C)ccc32)c1` (centres undefined), the pEC50 in the experiment with T47D [1] is 7.51; with NCI-H1299, 7.20; with DLD-1 [2], 6.90.
The corresponding values for `CN(C)c1ccc2c(c1)OC(N)=C(C#N)C2c1cc(Cl)cc(Cl)c1` (centres undefined) are 7.12, 6.63 and 6.62.
As for `CN(C)c1ccc2c(c1)OC(N)=C(C#N)C2c1cc(Br)c2c(c1)OCO2` (centres undefined), the GI50 (as a rule, the concentration at which growth is held to half of that of the control) in the experiment on DLD-1 [3] was determined as 735 nM; with T47D [4] it was 605 nM. The pEC50 in the experiment on T47D [1] was 6.61; with NCI-H1299 it was 6.12; in the experiment with DLD-1 [2] it was 6.53. For the same compound, the “Ratio GI50/EC50” value in the experiment with T47D [5] and in the experiment on DLD-1 [6] was 2.5 each time.
As to `COc1ccc(C2C(C#N)=C(N)Oc3cc(N(C)C)ccc32)cc1` (centres undefined), the pEC50 in the experiment with T47D [1] was 5.80; in the experiment with NCI-H1299 it was 5.70; in the experiment on DLD-1 [2], 5.59.
The like results for `Cc1cccc(C2C(C#N)=C(N)Oc3cc(N(C)C)ccc32)c1` (centres undefined) were, in that order, 6.87, 6.38 and 6.77.
The like results for `COc1cc(C2C(C#N)=C(N)Oc3cc(N(C)C)ccc32)cc(Cl)c1OC` (centres undefined) were, in that order, 7.74, 7.44 and 7.19.
The like results for `CN(C)c1ccc2c(c1)OC(N)=C(C#N)C2c1cccnc1` (centres undefined) were, in that order, 7.17, 6.81 and 6.91.
For the compound `Cc1cncc(C2C(C#N)=C(N)Oc3cc(N(C)C)ccc32)c1` (centres undefined), the values for the pEC50 with T47D [1], in the experiment with NCI-H1299 and with DLD-1 [2] were 7.96, 7.57 and 7.74, respectively.
In the case of `CC(=O)O[C@H]1C(=O)[C@@]2(C)[C@H]([C@H](OC(=O)c3ccccc3)[C@]3(O)C[C@H](OC(=O)[C@H](O)[C@@H](NC(=O)c4ccccc4)c4ccccc4)C(C)=C1C3(C)C)[C@]1(OC(C)=O)CO[C@@H]1C[C@@H]2O` [PACLITAXEL], the pEC50 is 7.52 in the experiment with T47D [1], 6.79 in the experiment on NCI-H1299 and 7.12 in the experiment with DLD-1 [2].
The like results for `COc1cccc(C2C(C#N)=C(N)Oc3cc(N(C)C)ccc32)c1` (centres undefined) were, in that order, 7.19, 6.70 and 7.09.
The like results for `CC[C@]1(O)C[C@@H]2CN(CCc3c([nH]c4ccccc34)[C@@](C(=O)OC)(c3cc4c(cc3OC)N(C)[C@H]3[C@@](O)(C(=O)OC)[C@H](OC(C)=O)[C@]5(CC)C=CCN6CC[C@]43[C@@H]65)C2)C1` [VINBLASTINE] were, in that order, 7.60, 7.14 and 6.89.
The corresponding values for `CCCCCCCCCCCCOc1cccc(C2C(C#N)=C(N)Oc3cc(N(C)C)ccc32)c1` (centres undefined) are under 5.00, under 5.00 and under 5.00.
On to `CN(C)c1ccc2c(c1)OC(N)=C(C#N)C2CCc1ccccc1` (centres undefined), for which the values for the pEC50 in the experiment on T47D [1], in the experiment with NCI-H1299 and in the experiment with DLD-1 [2] were 6.37, 5.97 and 6.23, respectively.
The like results for `CN(C)c1ccc2c(c1)OC(N)=C(C#N)C2c1cnc2ccccc2c1` (centres undefined) were, in that order, 5.74, 5.65 and 5.56.
The corresponding values for `CN(C)c1ccc2c(c1)OC(N)=C(C#N)C2c1ccccn1` (centres undefined) are 6.33, 5.84 and 6.02.
Regarding `CN(C)c1ccc2c(c1)OC(N)=C(C#N)C2c1cncc(Br)c1` (centres undefined), the pEC50 in the experiment on T47D [1] was 7.48; with NCI-H1299 it was 7.34; in the experiment with DLD-1 [2] it was 7.59.
`CN(C)c1ccc2c(c1)OC(N)=C(C#N)C2c1cccc(Br)c1` (centres undefined): the figures for the pEC50 with T47D [1], with NCI-H1299 and in the experiment on DLD-1 [2] were 7.19, 6.47 and 7.06, respectively.
The corresponding values for `COc1ccccc1C1C(C#N)=C(N)Oc2cc(N(C)C)ccc21` (centres undefined) are 6.55, 6.25 and 6.48.
The corresponding values for `CN(C)c1ccc2c(c1)OC(N)=C(C#N)C2c1cccc(C(=O)O)c1` (centres undefined) are under 5.00, under 5.00 and under 5.00.
Regarding `CN(C)c1ccc2c(c1)OC(N)=C(C#N)C2c1cccc(Cl)c1` (centres undefined), the pEC50 in the experiment with T47D [1] is 6.95; in the experiment on NCI-H1299, 6.29; with DLD-1 [2], 6.80.
The corresponding values for `CN(C)c1ccc2c(c1)OC(N)=C(C#N)C2c1cccc(C#N)c1` (centres undefined) are 7.20, 6.67 and 7.09.
As for `COc1cc(C2C(C#N)=C(N)Oc3cc(N(C)C)ccc32)cc2c1OCO2` (centres undefined), the Activity in the experiment on T47D [7] was 18.8%; in the experiment on Jurkat [8], “tde”; with T47D [10], 44%; in the experiment on T47D [11] it was 12%; with T47D [12] it was 43.5%; with T47D [14], 4.3%. Besides, the Activity stood at 7.6% in the experiment with T47D [15], 57% with T47D [16] and 11% in the experiment on T47D [17]. Further, the pIC50 (commonly the IC50 on a negative log10 scale, so that one unit is a factor of ten) at Tubulin [9] is 6.40. Also, in the experiment on Jurkat [13], the outcome was Active. The pEC50 in the experiment on DLD-1 [2] is 7.08.
As to `COc1cc(C2C(C#N)=C(N)Oc3cc(N(C)C)ccc32)cc(I)c1OC` (centres undefined), the pEC50 in the experiment on T47D [1] is 7.74; in the experiment on NCI-H1299, 7.47; with DLD-1 [2], 7.19.
Take `CN[C@@H]1C[C@H]2O[C@@](C)([C@@H]1OC)n1c3ccccc3c3c4c(c5c6ccccc6n2c5c31)C(=O)NC4`: the outcome in the experiment on Jurkat [18] was Active.
As to `CN(C)c1ccc2c(c1)OC(N)=C(C#N)C2c1ccncc1` (centres undefined), the pEC50 was 6.42 in the experiment with T47D [1], 6.07 with NCI-H1299 and 6.11 in the experiment with DLD-1 [2].
The corresponding values for `COc1cc(C2C(C#N)=C(N)Oc3cc(N(C)C)ccc32)cc(Br)c1O` (centres undefined) are 7.39, 6.84 and 7.19.
The corresponding values for `COc1ccc(C2C(C#N)=C(N)Oc3cc(N(C)C)ccc32)cc1OC` (centres undefined) are 6.60, 6.29 and 6.46.
As to `COc1cc(C2(C)C(C#N)=C(N)Oc3cc(N(C)C)ccc32)cc(Br)c1OC` (centres undefined), the figures for the pEC50 with T47D [1], in the experiment with NCI-H1299 and in the experiment on DLD-1 [2] were 5.14, 5.11 and 4.98, respectively.
The like results for `CN(C)c1ccc2c(c1)OC(N)=C(C#N)C2c1cccs1` (centres undefined) were, in that order, 6.70, 6.52 and 6.57.
The like results for `CN(C)c1ccc2c(c1)OC(N)=C(C#N)C2c1cccc(OC(F)(F)F)c1` (centres undefined) were, in that order, 6.35, 5.94 and 6.34.
The like results for `COc1ccc(C2C(C#N)=C(N)Oc3cc(N(C)C)ccc32)c(OC)c1OC` (centres undefined) were, in that order, 5.50, 5.43 and 5.29.
Regarding `Cc1cccc(C2C(C#N)=C(N)Oc3cc(N(C)C)ccc32)n1` (centres undefined), the pEC50 with T47D [1] was 6.61; in the experiment on NCI-H1299, 6.21; with DLD-1 [2], 6.36.
The like results for `COc1cccc(C2C(C#N)=C(N)Oc3cc(N(C)C)ccc32)c1OC` (centres undefined) were, in that order, 5.99, 5.67 and 5.90.
The corresponding values for `CN(C)c1ccc2c(c1)OC(N)=C(C#N)C2c1cccc(F)c1` (centres undefined) are 7.09, 6.52 and 6.89.
`COc1cc(C2C(C#N)=C(N)Oc3cc(N(C)C)ccc32)cc(Br)c1OC` (centres undefined) gave a pIC50 on Tubulin [19] of 5.10.
For `CN(C)c1ccc2c(c1)OC(N)=C(C#N)C2c1cccc(O)c1` (centres undefined), the pEC50 was 6.57 with T47D [1], 6.02 with NCI-H1299 and 6.27 with DLD-1 [2].
In the case of `COc1cc(OC)c(C2C(C#N)=C(N)Oc3cc(N(C)C)ccc32)cc1OC` (centres undefined), the values for the negative-log EC50 (pEC50) in the experiment with T47D [1], with NCI-H1299 and in the experiment on DLD-1 [2] were 5.75, 5.64 and 5.49, respectively.
